Data reported in patent US7892777B2, “Methods for measuring whether a treatment affects RPTP-κ activity” (The Regents Of The University Of Michigan, priority 2007, dated 2011).

What was measured:
EGFR = EGFR tyrosine phosphorylation (EGFR activation) in primary human keratinocytes; format: cell-based; conditions: human primary keratinocytes treated before UV irradiation (extracts: 16 hours, 50 mJ/cm2, 30 minutes post irradiation)
Experimental: With reference to FIG. 3, UV-induced EGFR tyrosine phosphorylation is shown to be ligand-independent and mediated by oxidative inhibition of RPTP-κ in primary human keratinocytes. Shown in panel A, primary human keratinocytes were treated with control IgG1 or EGFR antibody LA1 (1 μg/mL), which blocks ligand binding, as indicated. Cells were then treated with vehicle (CTRL), or EGF (10 ng/mL) for 10 min, or UV irradiated (50 mJ/cm^2) and harvested 15 min post irradiation. Whole cell lysates were subjected to Western analysis for total EGFR and tyrosine-phosphorylated EGFR. Levels of immunoreactive EGFR were quantified by chemifluorescent detection. Results are mean±S.E. of three independent experiments; *, p<0.05. […] Shown in panel B, human keratinocytes were UV-irradiated (50 mJ/cm^2), and whole cell lysates were prepared at the indicated times. RPTP-κ and β-actin (internal control) were detected by Western blot, and quantified by chemifluorescent detection. Results are mean±S.E. of three independent experiments; *, p<0.05. […] Shown in panel C, primary human keratinocytes were mock (No UV) or UV irradiated (50 mJ/cm^2), and whole cell lysates were prepared 5 min post-UV irradiation. RPTP-κ was immunoprecipitated, and phosphatase activity was determined using a tyrosine-phosphorylated EGFR peptide as substrate. Phosphatase activity was normalized to RPTP-κ protein content in the immunoprecipitates, which was quantified by Western analysis using chemifluorescent detection. Results are mean±S.E. of three independent experiments; *, p<0.05. […] Endogenous RPTP-κ was immunoprecipitated, and assayed for activity in buffer containing dithiothreitol to reduce oxidized RPTP-κ to restore enzymatic activity, using a tyrosine-phosphorylated EGFR peptide as substrate. Results are mean±S.E. of three independent experiments; *, p<0.05. Shown in panel E, RPTP-κ was immunoprecipitated from mock or UV-irradiated human keratinocytes, and the immunoprecipitates were treated with DTT to reduce oxidized RPTP-κ, as described above for panel C. Reduced RPTP-κ was irreversibly oxidized by pervanadate, and oxidized (OX-PTP) and total RPTP-κ were detected by Western blot, using specific antibodies. Results are mean±S.E. of three independent experiments; *, p<0.05.
With reference to FIG. 4, knockdown of RPTP-κ is shown to increase EGFR tyrosine phosphorylation in primary human keratinocytes. Shown in panel A, human keratinocytes were transfected with scrambled control (CTRL) or RPTP-κ siRNA. Two days post-transfection, whole cell lysates were prepared and analyzed for RPTP-κ and β-actin (internal control) proteins by Western blot. Results are mean±S.E. of three independent experiments; *, p<0.05. […] Shown in panel B, two days after transfection with control (CTRL) or RPTP-κ siRNA, keratinocytes were UV irradiated (50 mJ/cm2). Whole cell lysates were prepared 15 min post-UV irradiation and analyzed for total EGFR and tyrosine-phosphorylated EGFR Western blot. Results are mean±S.E. of three independent experiments; *, p<0.05. […] Shown in panel C, keratinocytes were transfected with control (CTRL) or RPTP-κ siRNA and treated with control IgG or neutralizing anti-EGFR antibody. Two days post-transfection, whole cell lysates were prepared and total and tyrosine-phosphorylated EGFR were quantified by ELISA. Results are mean±S.E. of three independent experiments; *, p<0.05.
With reference to FIG. 7, primary adult human keratinocytes were treated with Laminaria japonica extract (LJE) or Porphyra haitanensis extract (PHE) for 16 hours prior to exposure to ultraviolet (UV) irradiation (50 mJ/cm2). Cells were analyzed for phosphorylated epidermal growth factor receptor (EGFR) and total EGFR by Western analyses 30 minutes post irradiation. […]

RPTP-κ and EGFR = RPTP-κ and EGFR (Homo sapiens, UniProt Q15262); conditions: purified RPTP-κ and EGFR together, H2O2 100 μM, room temperature 30 min; FIG. 1C
Sequence of RPTP-κ and EGFR (Q15262 775-1439 limits assumed): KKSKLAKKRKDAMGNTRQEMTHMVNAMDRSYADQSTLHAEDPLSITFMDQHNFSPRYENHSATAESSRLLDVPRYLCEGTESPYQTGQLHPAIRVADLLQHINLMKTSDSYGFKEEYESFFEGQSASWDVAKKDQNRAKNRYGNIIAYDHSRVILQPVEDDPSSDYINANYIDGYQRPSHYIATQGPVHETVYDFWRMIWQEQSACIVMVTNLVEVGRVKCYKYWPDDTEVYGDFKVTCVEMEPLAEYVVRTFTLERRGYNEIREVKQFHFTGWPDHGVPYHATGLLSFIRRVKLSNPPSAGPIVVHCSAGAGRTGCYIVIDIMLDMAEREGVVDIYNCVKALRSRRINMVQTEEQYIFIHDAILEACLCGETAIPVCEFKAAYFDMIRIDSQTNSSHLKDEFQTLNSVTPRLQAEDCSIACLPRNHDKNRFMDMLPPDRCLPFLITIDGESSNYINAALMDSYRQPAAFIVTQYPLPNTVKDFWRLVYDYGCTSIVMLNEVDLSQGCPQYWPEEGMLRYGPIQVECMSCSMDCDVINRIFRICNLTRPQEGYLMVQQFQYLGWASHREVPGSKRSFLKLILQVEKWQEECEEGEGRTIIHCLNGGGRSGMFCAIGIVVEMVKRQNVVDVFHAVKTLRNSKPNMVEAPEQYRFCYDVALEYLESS

[1] = target: RPTP-κ glutathione S-transferase fusion protein (Homo sapiens, UniProt Q15262); conditions: 100 μM H2O2, room temperature 30 min; FIG. 1A
Sequence of RPTP-κ glutathione S-transferase fusion protein (Q15262 775-1439 limits assumed): as above

purified EGFR = purified EGFR (Homo sapiens, UniProt P00533); conditions: EGFR with EGF and ATP/Mg2+, H2O2 at room temperature 30 min; FIG. 1B
Sequence of purified EGFR (P00533 25-1210): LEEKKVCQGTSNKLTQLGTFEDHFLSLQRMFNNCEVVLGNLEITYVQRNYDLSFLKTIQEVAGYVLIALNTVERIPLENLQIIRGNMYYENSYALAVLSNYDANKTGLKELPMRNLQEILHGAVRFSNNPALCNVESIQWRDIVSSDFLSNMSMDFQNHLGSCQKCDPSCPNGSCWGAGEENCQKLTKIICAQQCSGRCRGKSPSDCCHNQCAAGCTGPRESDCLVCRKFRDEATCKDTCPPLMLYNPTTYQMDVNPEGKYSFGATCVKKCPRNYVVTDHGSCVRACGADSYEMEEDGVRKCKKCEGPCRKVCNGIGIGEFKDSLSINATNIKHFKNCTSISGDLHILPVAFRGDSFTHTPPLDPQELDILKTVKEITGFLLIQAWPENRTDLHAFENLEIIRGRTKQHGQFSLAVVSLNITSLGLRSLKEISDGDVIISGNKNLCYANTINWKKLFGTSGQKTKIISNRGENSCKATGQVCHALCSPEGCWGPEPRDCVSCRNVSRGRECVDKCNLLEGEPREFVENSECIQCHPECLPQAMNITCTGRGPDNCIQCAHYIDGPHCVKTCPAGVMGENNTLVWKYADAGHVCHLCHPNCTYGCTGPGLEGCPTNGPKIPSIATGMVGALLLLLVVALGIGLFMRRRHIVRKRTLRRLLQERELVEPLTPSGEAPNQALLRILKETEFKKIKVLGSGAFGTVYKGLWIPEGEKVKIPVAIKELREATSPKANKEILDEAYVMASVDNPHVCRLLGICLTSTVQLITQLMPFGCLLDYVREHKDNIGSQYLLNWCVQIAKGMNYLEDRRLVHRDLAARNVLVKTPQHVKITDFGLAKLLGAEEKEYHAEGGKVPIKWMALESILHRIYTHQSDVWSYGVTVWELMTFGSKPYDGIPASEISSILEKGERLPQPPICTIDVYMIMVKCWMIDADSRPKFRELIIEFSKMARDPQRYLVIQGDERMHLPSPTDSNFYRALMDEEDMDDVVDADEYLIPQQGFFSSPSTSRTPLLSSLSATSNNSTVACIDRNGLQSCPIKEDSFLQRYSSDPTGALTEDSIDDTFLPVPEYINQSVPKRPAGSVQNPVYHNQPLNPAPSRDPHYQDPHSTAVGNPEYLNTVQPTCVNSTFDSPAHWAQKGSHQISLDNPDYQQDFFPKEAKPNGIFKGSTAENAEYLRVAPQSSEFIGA

SMILES: O=C(/C=C/c1ccc(O)c(O)c1)OCCc1ccccc1 [CAPE, Caffeic acid phenethyl ester]
- UV irradiation-induced EGFR activation (EGFR): no effect

SMILES: COC1=C(OC)C(=O)C(CCCCCCCCCC[P+](c2ccccc2)(c2ccccc2)c2ccccc2)=C(C)C1=O [Mito Q10]
- UV irradiation-induced EGFR activation (EGFR): no effect

SMILES: OO [H2O2, hydrogen peroxide]
- EGFR tyrosine phosphorylation (RPTP-κ and EGFR): increased to the level observed in the absence of RPTP-κ
- loss of RPTP-κ activity [1]: 80%
- effect on tyrosine phosphorylation of purified EGFR (purified EGFR): no direct effect

SMILES: CC1=NN(c2ccccc2)C(=O)C1 [MCI-186, 3-Methyl-1-phenyl-2-pyrazolin-5-one]
- UV irradiation-induced EGFR activation (EGFR): no effect

SMILES: CC(=O)N[C@@H](CS)C(=O)O [N-Acetyl cysteine]
- UV irradiation-induced EGFR activation (EGFR): no effect

SMILES: Oc1ccc(C=Cc2cc(O)cc(O)c2)cc1 [Resveratrol]
- UV irradiation-induced EGFR activation (EGFR): no effect
- UV irradiation-induced EGFR activation (EGFR; listed as resveratrol): did not exhibit activity

SMILES: CC1=C(C)C(=O)C(CC[C@](C)(O)CCC[C@H](C)CCC[C@H](C)CCCC(C)C)=C(C)C1=O [Tocopherylquinone, d-alpha]
- UV irradiation-induced EGFR activation (EGFR): no effect
